{
  "source": "patent US10098894B2",
  "about": "“Transdermal cream” (TherapeuticsMD, Inc., priority 2014, dated 2018)",
  "key": {"[1]": {"assay": "Exposure, tissue distribution and metabolite profile (progesterone, ALLO, ALLO-sulfate in plasma, salivary gland, uterus) in ovariectomized rats", "assay_type": "in vivo", "conditions": "for Kp at 2 h: female, Crl:CD, uterus/plasma, read-out: Ratio of progesterone levels in the uterus to plasma; for Mean progesterone level in plasma / Mean progesterone level in salivary gland / Mean progesterone level in uterus: 2 hours after final dose Day 8", "protocol": "Thirty-two 8-week-old, female, Crl:CD® rats underwent ovariectomy 2 weeks prior to study start. […] Plasma and tissue homogenates were analyzed for progesterone, ALLO, and ALLO-sulfate using LC-MS/MS."}, "[2]": {"test_system": "endometrium and vagina in ovariectomized rats", "assay": "Estradiol-induced endometrium proliferation in ovariectomized rats (uterine weight, histology, histomorphometry)", "assay_type": "in vivo, rat", "conditions": "for Uterine weight compared to estradiol-only treatment group: Days 4-8, with estradiol", "protocol": "Thirty-two 8-week-old, female, Crl:CD® rats underwent ovariectomy 2 weeks prior to the start of the study. Rats were randomly assigned to 4 groups of 8 rats each. Three of the groups received 3 μg/kg/day estradiol, subcutaneously (SC), for 8 days as well as a placebo cream, 10 mg/kg/day progesterone, SC, or 3.125 mg/day progesterone transdermally beginning on Day 4. The fourth group received saline, SC for 8 days and placebo cream beginning on Day 4. Two hours after the final dose on Day 8, the rats were humanely euthanized, uterine weights were measured, and the vagina and distal portions of the uterine horns were fixed and processed for histology and computer-aided morphometry. Study parameters are outlined in Table 22."}, "[3]": {"assay": "Progesterone solubility study in different solvent systems", "assay_type": "physicochemical", "conditions": "oil or lipid, thermodynamic from solid; in CAPRYOL 90; solubility determined by HPLC"}, "[4]": {"assay": "Progesterone solubility study in different solvent systems", "assay_type": "physicochemical", "conditions": "thermodynamic from solid, room temperature, visual", "protocol": "Solubility of progesterone was determined on a visual basis by adding progesterone incrementally to a certain quantity of solvent at room temperature until a supersaturated solution was formed."}},
  "note": "Like-named read-outs stand apart in the source and are kept apart here.",
  "data": [
    {"smiles": "CC(=O)[C@H]1CC[C@H]2[C@@H]3CCC4=CC(=O)CC[C@]4(C)[C@H]3CC[C@]12C", "note": "[progesterone, pregn-4-ene-3,20-dione]", "values": [
      {"measurement": "Kp at 2 h", "setting": "[1]; 10 mg/kg/day, rat, SC route", "result": 7.3},
      {"measurement": "Kp at 2 h", "setting": "[1]; topical, 3.13 mg/rat/day, transdermal route", "result": 12},
      {"measurement": "Mean progesterone level in plasma", "setting": "[1]; rat, SC administration", "result": 5.4, "unit": "ng/mL/mg dose"},
      {"measurement": "Mean progesterone level in salivary gland", "setting": "[1]; rat, SC administration", "result": 5.9, "unit": "ng/mL/mg dose"},
      {"measurement": "Mean progesterone level in uterus", "setting": "[1]; rat, SC administration", "result": 39, "unit": "ng/mL/mg dose"},
      {"measurement": "Levels of ALLO in the plasma, comparison of both routes of administration", "setting": "[1]; rat, SC vs topical", "result": "similar"},
      {"measurement": "Sum of plasma levels of ALLO and ALLO-sulfate relative to plasma level of progesterone", "setting": "[1]; rat, after topical dosing", "result": "equivalent"},
      {"measurement": "Mean tissue levels of ALLO and ALLO-sulfate, SC administration compared to topical administration", "setting": "[1]; rat, all instances", "result": "higher"},
      {"measurement": "Mean progesterone level in plasma", "setting": "[1]; rat, topical administration (Table 16 formulation)", "result": 2.0, "unit": "ng/mL/mg dose"},
      {"measurement": "Mean progesterone level in salivary gland", "setting": "[1]; rat, topical administration", "result": 10, "unit": "ng/mL/mg dose"},
      {"measurement": "Mean progesterone level in uterus", "setting": "[1]; rat, topical administration", "result": 24, "unit": "ng/mL/mg dose"},
      {"measurement": "Endometrial gland density, transdermal as compared to SC progesterone", "setting": "[2]", "result": "significant increase"},
      {"measurement": "Uterine weight compared to estradiol-only treatment group", "setting": "[2]; progesterone 3.125 mg/day transdermally (formulation of Table 16)", "result": "pronounced reduction"},
      {"measurement": "Uterine weight compared to estradiol-only treatment group", "setting": "[2]; progesterone 10 mg/kg/day SC", "result": "pronounced reduction"},
      {"measurement": "Endometrial gland density compared to unopposed estradiol", "setting": "[2]; progesterone SC", "result": "significant increase"},
      {"measurement": "Luminal epithelial cell thickness compared to unopposed estradiol", "setting": "[2]; progesterone SC", "result": "significant reduction"},
      {"measurement": "Estrogen-specific cellular aspects in uterus and vagina (histology)", "setting": "[2]; progesterone SC with estradiol", "result": "not detected"},
      {"measurement": "Endometrial gland density compared to unopposed estradiol", "setting": "[2]; progesterone transdermally", "result": "significant increase"},
      {"measurement": "Luminal epithelial cell thickness compared to unopposed estradiol", "setting": "[2]; progesterone transdermally", "result": "significant reduction"},
      {"measurement": "Estrogen-specific cellular aspects in uterus and vagina (histology)", "setting": "[2]; progesterone transdermally with estradiol", "result": "not detected"},
      {"measurement": "solubility", "setting": "[3]", "result": 112, "unit": "mg/mL"},
      {"measurement": "solubility", "setting": "[4]; aqueous with cosolvent or surfactant or cyclodextrin, in 5% SLS", "result": 6.6, "unit": "mg/mL"},
      {"measurement": "solubility", "setting": "[4]; oil or lipid, in CAPRYOL PGMC", "result": 82, "unit": "mg/mL"},
      {"measurement": "solubility", "setting": "[4]; oil or lipid, in GLYCEROX 767", "result": 22.2, "unit": "mg/mL"},
      {"measurement": "solubility", "setting": "[4]; oil or lipid, in LABRAFAC PG", "result": 41, "unit": "mg/mL"},
      {"measurement": "solubility", "setting": "[4]; oil or lipid, in LAUROGLYCOL 90", "result": 90.2, "unit": "mg/mL"},
      {"measurement": "solubility", "setting": "[4]; oil or lipid, in LAUROGLYCOL FCC", "result": 60, "unit": "mg/mL"},
      {"measurement": "solubility", "setting": "[4]; oil or lipid, in MIGLYOL 812 + D-L α Tocopherol Care (85:15)", "result": 38.2, "unit": "mg/mL"},
      {"measurement": "solubility", "setting": "[4]; oil or lipid, in MIGLYOL 812 + D-L α Tocopherol Care (95:5)", "result": 20.1, "unit": "mg/mL"},
      {"measurement": "solubility", "setting": "[4]; oil or lipid, in MIGLYOL 812 + LABRAFAC PG (50:50)", "result": 25.7, "unit": "mg/mL"},
      {"measurement": "solubility", "setting": "[4]; oil or lipid, in MIGLYOL 812 + LAUROGLYCOL 90 (25:75)", "result": 47, "unit": "mg/mL"},
      {"measurement": "solubility", "setting": "[4]; oil or lipid, in MIGLYOL 812 + LAUROGLYCOL 90 (50:50)", "result": 58.9, "unit": "mg/mL"},
      {"measurement": "solubility", "setting": "[4]; oil or lipid, in MIGLYOL 812 + TRANSCUTOL (92.5:7.5)", "result": 40.2, "unit": "mg/mL"},
      {"measurement": "solubility", "setting": "[4]; oil or lipid, in MIGLYOL 812 + TRANSCUTOL (95:5)", "result": 40.5, "unit": "mg/mL"},
      {"measurement": "solubility", "setting": "[4]; oil or lipid, in MIGLYOL 812 + Vitamin E TPGS (91:9)", "result": 45.2, "unit": "mg/mL"},
      {"measurement": "solubility", "setting": "[4]; oil or lipid, in MIGLYOL 812", "result": 25, "unit": "mg/mL"},
      {"measurement": "solubility", "setting": "[4]; oil or lipid, in MIGLYOL 829", "result": 41.3, "unit": "mg/mL"},
      {"measurement": "solubility", "setting": "[4]; oil or lipid, in MIGLYOL 840", "result": 41.7, "unit": "mg/mL"},
      {"measurement": "solubility", "setting": "[4]; oil or lipid, in Oleic Acid", "result": 62.2, "unit": "mg/mL"},
      {"measurement": "solubility", "setting": "[4]; oil or lipid, in Oleyl Alcohol", "result": 41.2, "unit": "mg/mL"},
      {"measurement": "solubility", "setting": "[4]; organic solvent or mixture, in Absolute Alcohol", "result": 57, "unit": "mg/mL"},
      {"measurement": "solubility", "setting": "[4]; organic solvent or mixture, in Dimethyl Isosorbide", "result": 92, "unit": "mg/mL"},
      {"measurement": "solubility", "setting": "[4]; organic solvent or mixture, in Propylene Glycol", "result": 10.5, "unit": "mg/mL"},
      {"measurement": "solubility", "setting": "[4]; organic solvent or mixture, in TRANSCUTOL", "result": 60.3, "unit": "mg/mL"},
      {"measurement": "solubility", "setting": "[4]; organic solvent or mixture, in d-Limonene + TRANSCUTOL (25:75)", "result": 95.6, "unit": "mg/mL"},
      {"measurement": "solubility", "setting": "[4]; organic solvent or mixture, in d-Limonene + TRANSCUTOL (40:60)", "result": 102, "unit": "mg/mL"},
      {"measurement": "solubility", "setting": "[4]; organic solvent or mixture, in d-Limonene + TRANSCUTOL (50:50)", "result": 100, "unit": "mg/mL"},
      {"measurement": "solubility", "setting": "[4]; organic solvent or mixture, in d-Limonene", "result": 204, "unit": "mg/mL"}
    ]},
    {"smiles": "C[C@]12CC[C@@H]3c4ccc(O)cc4CC[C@H]3[C@@H]1CC[C@@H]2O", "note": "[estradiol, (17β)-estra-1,3,5(10)-triene-3,17-diol]", "values": [
      {"measurement": "Effect of unopposed estradiol treatment on the uterus (organ weight, histology)", "setting": "[2]; 3 μg/kg/day SC, 8 days", "result": "hypertrophy"}
    ]}
  ]
}
